The test system of test [1] is H1 human embryonic stem cells. Description: Analog screening with GDF-8 and growth factor/agonist pool (Example 8, Tables 7 and 8). The test is classed as cell-based. How it is done:
Briefly, clusters of H1 human embryonic stem cells were grown on reduced growth factor […]™ (Invitrogen; Cat #356231)-coated tissue culture plastic. Cells were passaged using collagenase (Invitrogen; Cat #17104-019) treatment and gentle scraping, washed to remove residual enzyme, and plated with even dispersal at a ratio of 1:1 (surface area) on reduced growth factor […]™-coated 96-well black plates (Packard ViewPlates; PerkinElmer; Cat #6005182) using volumes of 100 μl/well. Cells were allowed to attach as clusters and then recover log phase growth over a 1 to 3 day period, feeding daily with MEF conditioned medium supplemented with 8 ng/ml bFGF (R&D Systems; Cat #233-FB). Plates were maintained at 37° C., 5% CO2 in a humidified box throughout the duration of assay. Growth factors purchased from R&D Systems were EGF (Cat #236-EG), FGF4 (Cat #235-F4), PDGF-A (Cat #221-AA), PDGF-D (Cat #1159-SB), PDGF-A/B (Cat #222-AB). […] Screening was conducted using a library of compounds that were made available as 5 mM stocks in 96-well plate format, solubilized in 100% DMSO (Sigma; Cat #D2650) and stored at −80° C. The compounds were further diluted to an intermediate concentration of 0.2 mM in 50 mM HEPES (Invitrogen; Cat #15630-080), 20% DMSO and stored at 4° C. Test conditions were performed in single wells, feeding on alternate days over a four-day assay period. Primary screening assays were initiated by aspirating culture medium from each well followed by three washes in PBS (Invitrogen; Cat #14190) to remove residual growth factors and serum. On the first day of assay, test volumes of 200 μl per well were added back containing DMEM:F12 base medium (Invitrogen; Cat #11330-032) supplemented with 0.5% FCS (HyClone; […] Cat #1324-WN) plus 2.5 μM compound. All remaining growth factors were tested at a final assay concentration of 50 ng/ml (EGF, FGF4, PDGF-A, PDGF-A/B, VEGF) with the exception of GDF-8 tested at 25 ng/ml. […] Cat #120-14). […] All remaining growth factors were tested at a final assay concentration of 50 ng/ml (EGF, FGF4, PDGF-A, PDGF-A/B, VEGF) with the exception of GDF-8 tested at 25 ng/ml. […] Cat #120-14). Negative control samples contained DMEM:F12 base medium supplemented with 2% FCS. […] At the conclusion of four-days of culture, assay plates were washed twice with PBS (Invitrogen; Cat #14190), fixed with 4% paraformaldehyde (Alexis Biochemical; Cat #ALX-350-011) at room temperature for 20 minutes, then washed three times with PBS and permeabilized with 0.5% Triton X-100 (Sigma; Cat #T8760-2) for 20 minutes at room temperature. Cells were washed again three times with PBS and blocked with 4% chicken serum (Invitrogen; Cat #16110082) in PBS for 30 minutes at room temperature. Primary antibody (goat anti-human SOX17; R&D Systems; Cat #AF1924) was diluted 1:100 in 4% chicken serum and added to each well for one hour at room temperature. Alexa Fluor 488 conjugated secondary antibody (chicken anti-goat IgG; Molecular Probes; Cat #AZ1467) was diluted 1:200 in PBS and added to each sample well after washing three times with PBS. To counterstain nuclei, 4 μg/ml Hoechst 33342 (Invitrogen; Cat #H3570) was added for ten minutes at room temperature. Plates were washed once with PBS and left in 100 μl/well PBS for imaging. Imaging was performed using an IN Cell Analyzer 1000 (GE Healthcare) utilizing the 51008bs dichroic for cells stained with Hoechst 33342 and Alexa Fluor 488. Exposure times were optimized from positive control wells and from untreated negative control wells stained with secondary antibody alone. Images from 15 fields per well were acquired to compensate for any cell loss during the bioassay and subsequent staining procedures. […] Segmentation for the nuclei was determined based on gray-scale levels (baseline range 100-300) and nuclear size. Averages and standard deviations were calculated for each replicate data set. […]

For test [2], the system named is H1 human embryonic stem cells. Description: Analogue screening in combination with only GDF-8, SOX17 (Example 21, Tables 18 and 19). The format is cell-based. Also noted: Sox17 Expression: % of positive control / Cell Number: % of positive control: tested at 2.5 µM. As to conditions: compound in combination with GDF8; for Cell Number: Average Total Cell Number / Sox17 Expression: Average Total Intensity: four assay plates; for Cell Number: % of positive control / Sox17 Expression: % of positive control: relative to Activin A/Wnt3a of the same plate. How it is done:
Briefly, clusters of H1 human embryonic stem cells were grown on reduced growth factor Matrigel™ (Invitrogen; Cat #356231)-coated tissue culture plastic. Cells were passaged using collagenase (Invitrogen; Cat #17104-019) treatment and gentle scraping, washed to remove residual enzyme, and plated with even dispersal at a ratio of 1:1 (surface area) on reduced growth factor […]™ (BD Biosciences; Cat #356231)-coated 96-well black plates (Packard ViewPlates; PerkinElmer; Cat #6005182) using volumes of 100 μl/well. Cells were allowed to attach and then recover log phase growth over a 1 to 3 day time period, feeding daily with MEF conditioned medium supplemented with 8 ng/ml bFGF (R&D Systems; Cat #233-FB). Plates were maintained at 37° C., 5% CO2 in a humidified box throughout the duration of assay.
Screening was conducted using a library of the analogue compounds. Compounds from this library were made available as 5 mM stocks in 96-well plate format, solubilized in 100% DMSO (Sigma; Cat #D2650) and stored at −80° C. The library compounds were further diluted to an intermediate concentration of 0.2 mM in 50 mM HEPES (Invitrogen; Cat #15630-080), 20% DMSO and stored at 4° C. Test conditions were performed in triplicate, feeding on alternating days over a four-day assay period. Assays were initiated by aspirating culture medium from each well followed by three washes in PBS (Invitrogen; Cat #14190) to remove residual growth factors. On the first day of assay, test volumes of 200 μl per well were added to each well using DMEM:F12 base medium (Invitrogen; Cat #11330-032) supplemented with 0.5% FCS (HyClone; Cat #SH30070.03) and 200 ng/ml GDF-8 (R&D Systems, Cat #788-G8) plus 2.5 μM compound. On the third day of assay, test volumes of 100 μl per well were added to each well using DMEM:F12 base medium supplemented with 2% FCS plus 200 ng/ml GDF-8 (R&D Systems, Cat #788-G8). Positive control samples contained the same base medium supplemented with FCS and 1000 ng/ml recombinant human activin A (PeproTech; Cat #120-14) throughout the four-day assay along with Wnt3a (20 ng/ml) on days 1 and 2. Negative control samples contained DMEM:F12 base medium supplemented with FCS, adding Wnt3a on days 1 and 2 but omitting treatment with activin A.
At the conclusion of four-days of culture, assay plates were washed twice with PBS (Invitrogen; Cat #14190), fixed with 4% paraformaldehyde (Alexis Biochemical; Cat #ALX-350-011) at room temperature for 20 minutes, then washed three times with PBS and permeabilized with 0.5% Triton X-100 (Sigma; Cat #T8760-2) for 20 minutes at room temperature. Cells were washed again three times with PBS and blocked with 4% chicken serum (Invitrogen; Cat #16110082) in PBS for 30 minutes at room temperature. Primary antibody (goat anti-human SOX17; R&D Systems; Cat #AF1924) was diluted 1:100 in 4% chicken serum and added to each well for one hour at room temperature. Alexa Fluor 488 conjugated secondary antibody (chicken anti-goat IgG; Molecular Probes; Cat #AZ1467) was diluted 1:200 in PBS and added to each sample well after washing three times with PBS. To counterstain nuclei, 4 μg/ml Hoechst 33342 (Invitrogen; Cat #H3570) was added for ten minutes at room temperature. Plates were washed once with PBS and left in 100 μl/well PBS for imaging.
Imaging was performed using an IN Cell Analyzer 1000 (GE Healthcare) utilizing the 51008bs dichroic for cells stained with Hoechst 33342 and Alexa Fluor 488. Exposure times were optimized from positive control wells and from untreated negative control wells stained with secondary antibody alone. Images from 15 fields per well were acquired to compensate for any cell loss during the bioassay and subsequent staining procedures. Measurements for total cell number and total SOX17 intensity were obtained from each well using IN Cell Developer Toolbox 1.7 (GE Healthcare) software. […]

Setting [3] is: Plate 1, compound + EGF, FGF, PDGF-A, VEGF, PDGF-D, muscimol, GDF8.
Setting [4] is: Plate 1, compound + EGF, FGF, PDGF-A, VEGF, PDGF-D, muscimol, GDF8, positive control Activin A/Wnt3a.
The mark [5] stands for this setting: Table 8: hits with greater than 25% activity of the positive control, with GDF-8 and growth factors/agonists.

Structures are written as SMILES.

With `O=C1CCN2CCN(CC2)Cc2cc(Cl)cc(c2)Nc2ncnc(n2)-c2ccc(F)c(c2)CCCN1` [Compound 24, 5-Chloro-17-fluoro-1,8,10,12,22,26,32-heptaazapentacyclo[24.2.2.1˜3,7˜0.1˜9,13˜0.1˜14,18˜]tritriaconta-3(33), 4,6,9(32), 10,12,14(31), 15,17-nonaen-23-one], in test [1] (setting [3]), the “Cell Number, Average Total Cell Number” value came out at 12714 and the “Sox17 Expression, Average Total Intensity” value was 2.46E+08. Further, in test [1] (setting [4]), the “Cell Number, % of positive control” value is 94.9 % of positive control and the “Sox17 Expression, % of positive control” value is 98.2 % of positive control. In addition, in test [1] (setting [5]), the “Cell Number, % of positive control” value is reported as 94.9 % of positive control; the “Sox17 Expression, % of positive control” value is 98.2 % of positive control; the “Sox17 Expression, Average Total Intensity” value came out at 2.46E+08. In test [2], the “Cell Number: Average Total Cell Number” value was found to be 5012, the “Sox17 Expression: Average Total Intensity” value stood at 2.64E+07, the “Cell Number: % of positive control” value came to 33.4% and the “Sox17 Expression: % of positive control” value came out at 7.7%.

Turning to `O=C1NCCCc2cc(ccc2F)-c2ncnc(n2)Nc2cc(Cl)cc(c2)CN2CCCC1C2` (centres unmarked) [Compound 26, 10-Chloro-25-fluoro-3,5,7,14,20,31-hexaazapentacyclo[22.3.1.1˜2,6˜0.1˜8,12˜0.1˜14,18˜]hentriaconta-1(28), 2(31), 3,5,8(30), 9,11,24,26-nonaen-19-one], in test [1] (setting [3]), the “Cell Number, Average Total Cell Number” value is listed as 7415 and the “Sox17 Expression, Average Total Intensity” value was determined as 8.30E+07. Moreover, in test [1] (setting [4]), the “Cell Number, % of positive control” value is 55.4 % of positive control and the “Sox17 Expression, % of positive control” value is 33.1 % of positive control. In test [1] (setting [5]), the “Cell Number, % of positive control” value is 55.4 % of positive control; the “Sox17 Expression, % of positive control” value is listed as 33.1 % of positive control; the “Sox17 Expression, Average Total Intensity” value is 8.30E+07. In addition, in test [2], the “Cell Number: Average Total Cell Number” value is given as 4896, the “Sox17 Expression: Average Total Intensity” value is 1.65E+07, the “Cell Number: % of positive control” value is listed as 32.6% and the “Sox17 Expression: % of positive control” value was 4.8%.

With `CN1CCC(C(=O)NCc2sc(Nc3cccc(C(F)(F)F)c3)nc2-c2cccnc2)CC1` [Compound 50, 1-Methyl-N-[(4-pyridin-3-yl-2-{[3-(trifluoromethyl)phenyl]amino}-1,3-thiazol-5-yl)methyl]piperidine-4-carboxamide], in test [2], the “Cell Number: Average Total Cell Number” value amounted to 2666, the “Sox17 Expression: Average Total Intensity” value is recorded as 1.48E+07, the “Cell Number: % of positive control” value is given as 19.1% and the “Sox17 Expression: % of positive control” value was determined as 4.8%.

Consider `CC(C)(C)OC(=O)NCCc1ccc(Nc2nnc(-c3cccc(CCCO)c3)[nH]2)cc1` [Compound 51, 1,1-Dimethylethyl {2-[4-({5-[3-(3-hydroxypropyl)phenyl]-4H-1,2,4-triazol-3-yl}amino)phenyl]ethyl}carbamate], for which, in test [2], the “Cell Number: Average Total Cell Number” value turned out to be 4289, the “Sox17 Expression: Average Total Intensity” value is reported as 1.70E+07, the “Cell Number: % of positive control” value worked out at 28.6% and the “Sox17 Expression: % of positive control” value came out at 4.9%.

Consider `COc1ccc(CCCO)cc1-c1cnc(Nc2cccc(CNC(=O)OC(C)(C)C)c2)o1` [Compound 52, 1,1-Dimethylethyl {[3-({5-[5-(3-hydroxypropyl)-2-(methyloxy)phenyl]-1,3-oxazol-2-yl}amino)phenyl]methyl}carbamate], for which, in test [2], the “Cell Number: Average Total Cell Number” value was found to be 4932, the “Sox17 Expression: Average Total Intensity” value turned out to be 1.99E+07, the “Cell Number: % of positive control” value was 32.9% and the “Sox17 Expression: % of positive control” value was 5.8%.

Regarding `CN1CCN(S(=O)(=O)c2ccc(Nc3cncc(-c4ccc(CN5CCC(O)CC5)s4)n3)cc2)CC1` [Compound 53, 1-({5-[6-({4-[(4-Methylpiperazin-1-yl)sulfonyl]phenyl}amino)pyrazin-2-yl]thiophen-2-yl}methyl)piperidin-4-ol], in test [2], the “Cell Number: Average Total Cell Number” value is reported as 2783, the “Sox17 Expression: Average Total Intensity” value stood at 6.36E+06, the “Cell Number: % of positive control” value was 18.2% and the “Sox17 Expression: % of positive control” value stood at 1.9%.

The values are drawn from US9593305B2, “Differentiation of pluripotent stem cells” (Janssen Biotech, Inc., priority 2008, dated 2017).
